Two compounds from patent US20010056071A1, “Use of resveratrol for the treatment of exfoliative eczema, acne and psoriasis” (priority 2000, published 2001) can be followed below.

Each structure is given as a SMILES string.

The subject of series [1] is chronic psoriasis. The experiment in a line: Multi-center, double blind study of ointments in mild to moderate chronic psoriasis. The class given is in vivo, patients. The note with it: for percentage of patients healed or showing marked improvement (treatment effective): ointment twice a day for one month, 1% resveratrol, calcipotriol 50 mg/g, or both, 12 patients per group, control 10%. An excerpt:
A prospectic, multi-center, double bind study was effected on patients of both sexes, of age above 18 years, with a clinical diagnosis of mild to moderate chronic psoriasis, with affected areas of at least 100 cm^2, but not above 40% of the total body area. Patients with pustular psoriasis or with psoriasis guttata, those who had received either topical treatment for two weeks before the test or systemic treatment in the 8 weeks before the test, as well as pregnant and nursing women or patients receiving more than 400 IU of vitamin D daily or any other medicament potentially affecting the progress of the disease, were excluded.
Out of 48 patients, 12 were included in the resveratrol-treated group (1% resveratrol ointment), 12 in the control group (ointment with no resveratrol), 12 in a group treated with a Vitamin D derivative (calcipotriol 50 mg/g) and 12 in a group treated with the combination resveratrol/Vitamin D derivative (1% resveratrol/50 mg/g calcipotriol). […] Patients were treated twice a day for one month with the different ointments.
At the end of the treatment, the clinical response was evaluated as “healed”, “marked improvement”, “slight improvement”, “no changes”, “worsening”. Quality life evaluations were carried out before and after the treatment, by using the “psoriasis Disability Index” (PDI) and the “Sickness Impact Profile” (SIP). The PDI questionnaire included 15 questions as follows: daily activities (5 questions), work or school, if applicable, (3 questions), personal relationships, (2 questions), spare time (4 questions), treatment, (1 question). […] The purpose of said questions was to evaluate symptoms and feelings of the patients concerning their psoriasis during the first 4 weeks of treatment.

For series [2], the system named is severe disabling exfoliative eczema. As to the kind of experiment: Clinical study of 1% resveratrol ointment in exfoliative eczema (six-area/six-sign score). The class given is in vivo, patients. Here is the method:
Experiments were carried out on patients (n=20) of both sexes, of age above 18 years, suffering from severe disabling exfoliative eczema unresponsive to the current topical treatments.
All patients were subjected to complete blood count and measurements of renal and hepatic functions prior to treatment. Patients who had been systemically treated two months previously with corticoids, antibiotics, psoralenes and other immunosuppressants or with UV were excluded. Patients were supposed not to use any corticoid topically.
Out of 20 patients, 10 were included in the resveratrol-treated group (1% resveratrol ointment) and 10 in the control group (ointment with no resveratrol). […] Patients were divided in two groups and treated twice a day for six months either with the resveratrol-containing ointment or with the placebo ointment (control group).
The progress of the disease was monitored by using the “six-area/six-sign score” method. The severity of the six signs used for monitoring the disease (erythema, pustules, excoriations, dehydration, scaling of the skin and lichenification), was evaluated on a 0-3 score (none, mean, moderate and severe), in each of the six body areas tested (head, neck, hands, elbows, feet, legs and trunk). The severity of itching and of sleep disorders was evaluated on a 0-3 score (none, mean, moderate and severe).

The subject of series [3] is acne vulgaris. As to the kind of experiment: Randomized, double blind study of topical resveratrol (1% cream) in acne vulgaris. Type of series: in vivo, patients. The note with it: 1% cream daily for 10 weeks. Here is the method:
A randomized, double blind study was carried out in order to evaluate the effectiveness of topical administration of resveratrol in the treatment of acne vulgaris. Patients (n=30) of 15 to 19 years were all suffering from II or III degree acne (according to Pillsbury's classification), with multiple inflammatory lesions (20 to 62) and a number of comedos (28 to 120) on face and forehead. Only subjects who had received no systemic treatment with antibiotics for at least 4 weeks and had used no topical medicaments for 2 weeks before treatment were selected. During treatment with resveratrol, no further topical treatment was allowed. The effectiveness of the therapy was evaluated by comparing the conditions of the lesions before and after the treatment, according to an arbitrary score of 0 to 5 (0=worsening; 1=no changes; 2=slight improvement; 3=modest improvement; 4=good improvement; 5=excellent improvement).
Treatment consisted of daily topical administrations of resveratrol (1% cream) or of the carrier only, for 10 weeks in 30 patients suffering from acne vulgaris. The evaluated parameters were: number of acne lesions and comedos, erythema, seborrhoic skin and skin scaling.

In series [4] the test system is neutrophils, circulating cells, cells at the lesion site. As to the kind of experiment: General observations during and after topical treatment with resveratrol. Type of series: in vivo.
Setting [5] is: end of six months treatment, 10 treated patients.

Take `C=C1/C(=C\C=C2/CCC[C@]3(C)[C@@H]([C@H](C)/C=C/[C@@H](O)C4CC4)CC[C@@H]23)C[C@@H](O)C[C@@H]1O` [Vitamin D derivatives, calcipotriol, reference compound]: the “percentage of patients healed or showing marked improvement (treatment effective)” value in series [1] stood at 47%.

As for `Oc1ccc(/C=C/c2cc(O)cc(O)c2)cc1` [resveratrol, 3,4′,5-trihydroxy-trans-stilbene], in series [2] (1% resveratrol ointment twice a day, after the first two weeks of treatment, baseline 57.0 (SEM 1.6, n=10)), the “mean of the values concerning the different clinical symptoms (six-area/six-sign score)” value is 21.5. The “body area affected by eczema” value in series [2] (during treatment, baseline 69% on the average) came out at 27%. In series [2] (setting [5]), the “number of treated patients showing improvements only concerning skin scaling” value is on record as “two” and the “number of treated patients with significant improvements of all the considered parameters” value worked out at 8 patients. For the same compound, the “mean score for itching (0-3)” value in series [2] (end of the treatment, baseline 2.3) is 0.6. The “mean score for sleep disorders (0-3)” value in series [2] (end of the treatment, baseline 2.9) is recorded as 1.0. In series [3], the “cases in which effectiveness was due to the reduction of follicle hyperkeratosis” value is on record as 95% and the side effects result is “neither systemic nor topical side effects”. In addition, in series [3] (control subjects 2%), the “treated subjects with significant reduction of erythema, number of acne lesions, comedos and scaling” value is recorded as 96%. In addition, the “reduction in the total PDI score” value in series [1] (after treatment, 95% CI 4.4, 8.6, P=0.001, control group 1.7) turned out to be 6.5. Moreover, in series [1], the “percentage of patients healed or showing marked improvement (treatment effective)” value is on record as 80%. In addition, the “neutrophils activity, circulating cells, cells at the lesion site” value in series [4] (after topical treatment) was “no changes of neutrophils activity”. For the same compound, in series [4] (topical use), the “systemic or topical effects during and after the treatment” value is “neither systemic nor topical effects”.
